Experimental data published in US11000033B2, “Ketone or oxime compound, and herbicide” (NISSAN CHEMICAL CORPORATION, priority 2014, dated 2021).

Assays:
Assay type in all cases: in vivo
[1] = test system: Avena fatua; test: Test Example 5: herbicidal effect by foliage application, plastic box (symbol I); settings: 320 g/ha, 3 weeks after application
How it was run: (§1)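 Seeds were sown in sterilized diluvial soil, covered with about 1.5 cm of soil and grown 14 days in a greenhouse at 25° C. to 30° C. An emulsifiable formulation diluted in water to a set rate was sprayed over foliage, and injury was scored 3 weeks later.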

[2] = test system: directly sowed rice plant; test: Test Example 3: effect on crop by foliage application, Wagner pot (symbol b); settings: application herbicide amount 320 g/ha
How it was run: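 Alluvial soil in a 1/10000-are Wagner pot was flooded to a water depth of 0.1–0.5 cm. Echinochloa crus-galli var. crus-galli, Leptochloa chinensis, Cyperus difformis and rice were sown into it and grown in a greenhouse at 25–30 °C.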

[3] = test system: Galium spurium; test: Test Example 4: herbicidal effect by soil treatment (symbol Q); settings: application herbicide amount 320 g/ha
How it was run: (§2)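 Seeds were sown in sterilized diluvial soil, covered with about 1.5 cm of soil, and the soil surface was sprayed with a water-diluted emulsion of the compound at a predetermined rate. Plants grew in a greenhouse at 25° C. to 30° C.; effects were scored visually 3 weeks after application.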

[4] = test system: transplanted rice plant; test: Test Example 1: effect on crop, application before weed generation in submerged conditions (symbol a); settings: application herbicide amount 320 g/ha
How it was run: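 Alluvial soil pots flooded to 4 cm water, sown with Echinochloa oryzacola, Scirpus juncoides and Monochoria vaginalis, then transplanted with 2.5 leaf stage rice seedlings; pre-emergence application. Greenhouse 25° C. to 30° C.; scored 0–5 by herbicidal ratio 3 weeks after application.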

[5] = test system: Echinochloa crus-galli var. crus-galli; test: Test Example 4: herbicidal effect by soil treatment (symbol H); settings: application herbicide amount 320 g/ha
How it was run: as §2

[6] = test system: Abutilon theophrasti; test: Test Example 4: herbicidal effect by soil treatment (symbol M); settings: application herbicide amount 320 g/ha
How it was run: as §2

[7] = test system: Abutilon theophrasti; test: Test Example 5: herbicidal effect by foliage application, plastic box (symbol M); settings: 320 g/ha, 3 weeks after application
How it was run: as §1

[8] = test system: Chenopodium album; test: Test Example 4: herbicidal effect by soil treatment (symbol O); settings: application herbicide amount 320 g/ha
How it was run: as §2

[9] = test system: Echinochloa oryzacola Vasing.; test: Test Example 1: herbicidal activity, application before weed generation in submerged conditions (symbol A); settings: application herbicide amount 320 g/ha
How it was run: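 Ratings (5: ≥90%, near complete withering; 4: 70–<90%; 3: 40–<70%; 2: 20–<40%; 1: 5–<20%; 0: ≤5%) were assigned 3 weeks after the diluted emulsion was applied to the water surface of freshly sown, submerged pots.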

[10] = test system: Digitaria ciliaris; test: Test Example 5: herbicidal effect by foliage application, plastic box (symbol F); settings: 320 g/ha, 3 weeks after application
How it was run: as §1

[11] = test system: Apera spica-venti; test: Test Example 4: herbicidal effect by soil treatment (symbol L); settings: application herbicide amount 320 g/ha
How it was run: as §2

[12] = test system: Veronica persica; test: Test Example 5: herbicidal effect by foliage application, plastic box (symbol R); settings: 320 g/ha, 3 weeks after application
How it was run: as §1

[13] = test system: soybean; test: Test Example 5: effect on crop by foliage application, plastic box (symbol d); settings: 320 g/ha, 3 weeks after application
How it was run: (§3)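 Box culture: sterile diluvial soil, seeds spot-sown, ~1.5 cm cover, raised under glass at 25–30° C.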

[14] = test system: soybean; test: Test Example 4: effect on crop by soil treatment (symbol d); settings: application herbicide amount 320 g/ha
How it was run: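 Seeds were sown in spots on sterilized diluvial soil in a plastic box and covered with about 1.5 cm of soil. Plants were then grown in a greenhouse at 25° C. to 30° C.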

[15] = test system: corn; test: Test Example 5: effect on crop by foliage application, plastic box (symbol c); settings: 320 g/ha, 3 weeks after application
How it was run: as §3

Compound: CCC(=O)CC1CC(O)=C(c2c(C)cc(Br)cc2OC)C1=O (racemic) [14-002]
- I: Avena fatua, herbicidal effect grade [1]: 5 (Herbicidal ratio of 90% or more (almost completely withered))
- b (directly sowed rice plant) effect on crop grade ([2]; Table 24): 5 (Herbicidal ratio of 90% or more (almost completely withered))
- Q: Galium spurium, herbicidal effect grade [3]: 0 (Herbicidal ratio of 5% or lower (almost no effect))
- a (transplanted rice plant) effect on crop grade [4]: 2 (Herbicidal ratio of 20% or higher and lower than 40%)
- H: Echinochloa crus-galli var. crus-galli, herbicidal effect grade [5]: 5 (Herbicidal ratio of 90% or more (almost completely withered))
- M: Abutilon theophrasti, herbicidal effect grade [6]: 0 (Herbicidal ratio of 5% or lower (almost no effect))
- M: Abutilon theophrasti, herbicidal effect grade [7]: 4 (Herbicidal ratio of 70% or higher and lower than 90%)
- O: Chenopodium album, herbicidal effect grade [8]: 0 (Herbicidal ratio of 5% or lower (almost no effect))
- A (Echinochloa oryzacola Vasing.) herbicidal effect grade [9]: 4 (Herbicidal ratio of 70% or higher and lower than 90%)
- F: Digitaria ciliaris, herbicidal effect grade [10]: 5 (Herbicidal ratio of 90% or more (almost completely withered))
- L: Apera spica-venti, herbicidal effect grade [11]: 5 (Herbicidal ratio of 90% or more (almost completely withered))
- R: Veronica persica, herbicidal effect grade [12]: 0 (Herbicidal ratio of 5% or lower (almost no effect))
- d: soybean, effect on crop grade [13]: 1 (Herbicidal ratio of 5% or higher and lower than 20%)
- d: soybean, effect on crop grade [14]: 0 (Herbicidal ratio of 5% or lower (almost no effect))
- c: corn, effect on crop grade [15]: 5 (Herbicidal ratio of 90% or more (almost completely withered))

Compound: CON=C(C)CC1CC(OC(=O)C(C)(C)C)=C(c2c(C)cc(C)cc2C)C1=O (stereo not drawn) [1-004, 2-mesityl-4-{2-(methoxyimino)propyl}-3-oxocyclopent-1-en-1-yl pivalate]
- I: Avena fatua, herbicidal effect grade [1]: 5 (Herbicidal ratio of 90% or more (almost completely withered))
- effect on crop b (directly sowed rice plant), grade 0-5 [2]: 5 (Herbicidal ratio of 90% or more (almost completely withered))
- Q (Galium spurium) herbicidal effect grade [3]: 0 (Herbicidal ratio of 5% or lower (almost no effect))
- Effect grade on crop, a: transplanted rice plant [4]: 5 (Herbicidal ratio of 90% or more (almost completely withered))
- H (Echinochloa crus-galli var. crus-galli) herbicidal effect grade [5]: 5 (Herbicidal ratio of 90% or more (almost completely withered))
- M (Abutilon theophrasti) herbicidal effect grade [6]: 5 (Herbicidal ratio of 90% or more (almost completely withered))
- M: Abutilon theophrasti, herbicidal effect grade [7]: 4 (Herbicidal ratio of 70% or higher and lower than 90%)
- O (Chenopodium album) herbicidal effect grade [8]: 0 (Herbicidal ratio of 5% or lower (almost no effect))
- Herbicidal effect grade, A: Echinochloa oryzacola Vasing. [9]: 5 (Herbicidal ratio of 90% or more (almost completely withered))
- F: Digitaria ciliaris, herbicidal effect grade [10]: 5 (Herbicidal ratio of 90% or more (almost completely withered))
- L (Apera spica-venti) herbicidal effect grade [11]: 5 (Herbicidal ratio of 90% or more (almost completely withered))
- R: Veronica persica, herbicidal effect grade [12]: 4 (Herbicidal ratio of 70% or higher and lower than 90%)
- d: soybean, effect on crop grade [13]: 4 (Herbicidal ratio of 70% or higher and lower than 90%)
- d (soybean) effect on crop grade [14]: 3 (Herbicidal ratio of 40% or higher and lower than 70%)
- c: corn, effect on crop grade [15]: 5 (Herbicidal ratio of 90% or more (almost completely withered))
